According to paper PMC6008465 (British Journal of Cancer, 2018):

System: patients with advanced solid tumours
Assay: Phase 1 Part A (dose escalation): safety, DLT, MTD
Type: in vivo, human
Description: The primary objectives of this phase 1 study were to evaluate the safety, tolerability, and MTD of once-weekly (Schedule I) and twice-weekly (Schedule II) dosing. Secondary objectives included evaluation of the PK profile of E6201. […] Toxicity was managed by dose interruption, reduction, and/or discontinuation. Only Cycle 1 adverse events (AEs) were evaluable as DLTs. Based on AEs reported at 480 mg/m^2 and 400 mg/m^2, the protocol was amended to include up to 6 additional toxicity-evaluable patients at 320 mg/m^2, to confirm this as the MTD. All ongoing patients could continue at 320 mg/m^2, regardless of initial starting dose.
Safety was assessed by monitoring AEs, serious AEs (SAEs), laboratory parameters, vital signs, 12-lead electrocardiograms (ECGs), Eastern Cooperative Oncology Group performance status, and symptom-directed physical and neurologic examination findings. AEs were graded by investigators based on the National Cancer Institute Common Terminology Criteria for Adverse Events, version 3.[16]

Q: Which results are given for `CCNc1cc(O)c2c(c1)/C=C/C[C@H](O)[C@H](O)C(=O)/C=C\[C@@H](C)[C@H](C)OC2=O` [E6201, (3S,4R,5Z,8S,9S,11E)-14-(ethylamino)-8,9,16-trihydroxy-3,4-dimethyl-3,4,9,19-tetrahydro-1H-2-benzoxacyclotetradecine-1,7 (8H)-dione]?
A: Patients who discontinued treatment due to SAEs (Part A): Two; Patients with grade 1/2 eye disorders (Part A (160 and 320 mg/m^2 groups)): two; Nausea TEAE, patients (Part A overall, 9 patients): 36%; Abdominal pain TEAE incidence, All grades (Part A, 20 mg/m^2 (n=4)): 1 (25.0) n (%); Abdominal pain TEAE incidence, G≥3 (Part A, 20 mg/m^2 (n=4)): 0 n (%); Constipation TEAE incidence, All grades (Part A, 20 mg/m^2 (n=4)): 1 (25.0) n (%); Constipation TEAE incidence, G≥3 (Part A, 20 mg/m^2 (n=4)): 0 n (%); Decreased appetite TEAE incidence, All grades (Part A, 20 mg/m^2 (n=4)): 1 (25.0) n (%); Decreased appetite TEAE incidence, G≥3 (Part A, 20 mg/m^2 (n=4)): 0 n (%); Fatigue TEAE incidence, All grades (Part A, 20 mg/m^2 (n=4)): 1 (25.0) n (%); Fatigue TEAE incidence, G≥3 (Part A, 20 mg/m^2 (n=4)): 0 n (%); Hypokalemia TEAE incidence, All grades (Part A, 20 mg/m^2 (n=4)): 1 (25.0) n (%); Hypokalemia TEAE incidence, G≥3 (Part A, 20 mg/m^2 (n=4)): 0 n (%); Nausea TEAE incidence, All grades (Part A, 20 mg/m^2 (n=4)): 1 (25.0) n (%); Nausea TEAE incidence, G≥3 (Part A, 20 mg/m^2 (n=4)): 0 n (%); Peripheral edema TEAE incidence, All grades (Part A, 20 mg/m^2 (n=4)): 1 (25.0) n (%); Peripheral edema TEAE incidence, G≥3 (Part A, 20 mg/m^2 (n=4)): 0 n (%); Vomiting TEAE incidence, All grades (Part A, 20 mg/m^2 (n=4)): 0 n (%); Vomiting TEAE incidence, G≥3 (Part A, 20 mg/m^2 (n=4)): 0 n (%); Abdominal pain TEAE incidence, All grades (Part A, 40 mg/m^2 (n=3)): 1 (33.3) n (%); Abdominal pain TEAE incidence, G≥3 (Part A, 40 mg/m^2 (n=3)): 0 n (%); Constipation TEAE incidence, All grades (Part A, 40 mg/m^2 (n=3)): 0 n (%); Constipation TEAE incidence, G≥3 (Part A, 40 mg/m^2 (n=3)): 0 n (%); Decreased appetite TEAE incidence, All grades (Part A, 40 mg/m^2 (n=3)): 0 n (%); Decreased appetite TEAE incidence, G≥3 (Part A, 40 mg/m^2 (n=3)): 0 n (%); Fatigue TEAE incidence, All grades (Part A, 40 mg/m^2 (n=3)): 0 n (%); Fatigue TEAE incidence, G≥3 (Part A, 40 mg/m^2 (n=3)): 0 n (%); Hypokalemia TEAE incidence, All grades (Part A, 40 mg/m^2 (n=3)): 1 (33.3) n (%); Hypokalemia TEAE incidence, G≥3 (Part A, 40 mg/m^2 (n=3)): 0 n (%); Nausea TEAE incidence, All grades (Part A, 40 mg/m^2 (n=3)): 1 (33.3) n (%); Nausea TEAE incidence, G≥3 (Part A, 40 mg/m^2 (n=3)): 0 n (%); Peripheral edema TEAE incidence, All grades (Part A, 40 mg/m^2 (n=3)): 0 n (%); Peripheral edema TEAE incidence, G≥3 (Part A, 40 mg/m^2 (n=3)): 0 n (%); Vomiting TEAE incidence, All grades (Part A, 40 mg/m^2 (n=3)): 1 (33.3) n (%); Vomiting TEAE incidence, G≥3 (Part A, 40 mg/m^2 (n=3)): 0 n (%); Abdominal pain TEAE incidence, All grades (Part A, 80 mg/m^2 (n=3)): 0 n (%); Abdominal pain TEAE incidence, G≥3 (Part A, 80 mg/m^2 (n=3)): 0 n (%); Constipation TEAE incidence, All grades (Part A, 80 mg/m^2 (n=3)): 1 (33.3) n (%); Constipation TEAE incidence, G≥3 (Part A, 80 mg/m^2 (n=3)): 0 n (%); Decreased appetite TEAE incidence, All grades (Part A, 80 mg/m^2 (n=3)): 0 n (%); Decreased appetite TEAE incidence, G≥3 (Part A, 80 mg/m^2 (n=3)): 0 n (%); Fatigue TEAE incidence, All grades (Part A, 80 mg/m^2 (n=3)): 0 n (%); Fatigue TEAE incidence, G≥3 (Part A, 80 mg/m^2 (n=3)): 0 n (%); Hypokalemia TEAE incidence, All grades (Part A, 80 mg/m^2 (n=3)): 0 n (%); Hypokalemia TEAE incidence, G≥3 (Part A, 80 mg/m^2 (n=3)): 0 n (%); Nausea TEAE incidence, All grades (Part A, 80 mg/m^2 (n=3)): 0 n (%); Nausea TEAE incidence, G≥3 (Part A, 80 mg/m^2 (n=3)): 0 n (%); Peripheral edema TEAE incidence, All grades (Part A, 80 mg/m^2 (n=3)): 1 (33.3) n (%); Peripheral edema TEAE incidence, G≥3 (Part A, 80 mg/m^2 (n=3)): 0 n (%); Vomiting TEAE incidence, All grades (Part A, 80 mg/m^2 (n=3)): 0 n (%); Vomiting TEAE incidence, G≥3 (Part A, 80 mg/m^2 (n=3)): 0 n (%); Abdominal pain TEAE incidence, All grades (Part A, 160 mg/m^2 (n=3)): 1 (33.3) n (%); Abdominal pain TEAE incidence, G≥3 (Part A, 160 mg/m^2 (n=3)): 1 (33.3) n (%); Constipation TEAE incidence, All grades (Part A, 160 mg/m^2 (n=3)): 1 (33.3) n (%); Constipation TEAE incidence, G≥3 (Part A, 160 mg/m^2 (n=3)): 0 n (%); Decreased appetite TEAE incidence, All grades (Part A, 160 mg/m^2 (n=3)): 1 (33.3) n (%); Decreased appetite TEAE incidence, G≥3 (Part A, 160 mg/m^2 (n=3)): 0 n (%); Fatigue TEAE incidence, All grades (Part A, 160 mg/m^2 (n=3)): 1 (33.3) n (%); Fatigue TEAE incidence, G≥3 (Part A, 160 mg/m^2 (n=3)): 0 n (%); Hypokalemia TEAE incidence, All grades (Part A, 160 mg/m^2 (n=3)): 0 n (%); Hypokalemia TEAE incidence, G≥3 (Part A, 160 mg/m^2 (n=3)): 0 n (%); Nausea TEAE incidence, All grades (Part A, 160 mg/m^2 (n=3)): 1 (33.3) n (%); Nausea TEAE incidence, G≥3 (Part A, 160 mg/m^2 (n=3)): 0 n (%); Peripheral edema TEAE incidence, All grades (Part A, 160 mg/m^2 (n=3)): 1 (33.3) n (%); Peripheral edema TEAE incidence, G≥3 (Part A, 160 mg/m^2 (n=3)): 0 n (%); Vomiting TEAE incidence, All grades (Part A, 160 mg/m^2 (n=3)): 1 (33.3) n (%); Vomiting TEAE incidence, G≥3 (Part A, 160 mg/m^2 (n=3)): 0 n (%); Abdominal pain TEAE incidence, All grades (Part A, 320 mg/m^2 (n=7)): 2 (28.6) n (%); Abdominal pain TEAE incidence, G≥3 (Part A, 320 mg/m^2 (n=7)): 1 (14.3) n (%); Constipation TEAE incidence, All grades (Part A, 320 mg/m^2 (n=7)): 2 (28.6) n (%); Constipation TEAE incidence, G≥3 (Part A, 320 mg/m^2 (n=7)): 0 n (%); Decreased appetite TEAE incidence, All grades (Part A, 320 mg/m^2 (n=7)): 2 (28.6) n (%); Decreased appetite TEAE incidence, G≥3 (Part A, 320 mg/m^2 (n=7)): 1 (14.3) n (%); Fatigue TEAE incidence, All grades (Part A, 320 mg/m^2 (n=7)): 3 (42.9) n (%); Fatigue TEAE incidence, G≥3 (Part A, 320 mg/m^2 (n=7)): 1 (14.3) n (%); Hypokalemia TEAE incidence, All grades (Part A, 320 mg/m^2 (n=7)): 2 (28.6) n (%); Hypokalemia TEAE incidence, G≥3 (Part A, 320 mg/m^2 (n=7)): 0 n (%)
